The target of one assay is T1, PI3K β (Homo sapiens, UniProt P42338).
T1 construct: purchased Upstate
The assay can be described thus: PI3K β in vitro kinase inhibition assay. Type of assay: biochemical.

The target of a further assay is T2, PI3K α (Homo sapiens, UniProt P42336).
T2 construct: purchased Upstate
Description: PI3K α in vitro kinase inhibition assay. The assay is classed as biochemical.

In a further assay the target is T3, PI3K δ (Homo sapiens, UniProt O00329).
T3 construct: purchased Upstate
The assay can be described thus: PI3K δ in vitro kinase inhibition assay. Type of assay: biochemical.

In the next assay the target is T4, PI3K γ (Homo sapiens, UniProt P48736).
T4 construct: purchased Sigma
Description: PI3K γ in vitro kinase inhibition assay. The assay is classed as biochemical.

Another assay has as its system Balb/c splenic B cells. Description: B cell activation and proliferation assay (Alamar Blue). Type of assay: cell-based. Particulars: Mus musculus.
Setting [1] is: read-out: B cell proliferation EC50.

Like-named read-outs stand apart in the source and are kept apart here.

T3 sequence (O00329 whole entry): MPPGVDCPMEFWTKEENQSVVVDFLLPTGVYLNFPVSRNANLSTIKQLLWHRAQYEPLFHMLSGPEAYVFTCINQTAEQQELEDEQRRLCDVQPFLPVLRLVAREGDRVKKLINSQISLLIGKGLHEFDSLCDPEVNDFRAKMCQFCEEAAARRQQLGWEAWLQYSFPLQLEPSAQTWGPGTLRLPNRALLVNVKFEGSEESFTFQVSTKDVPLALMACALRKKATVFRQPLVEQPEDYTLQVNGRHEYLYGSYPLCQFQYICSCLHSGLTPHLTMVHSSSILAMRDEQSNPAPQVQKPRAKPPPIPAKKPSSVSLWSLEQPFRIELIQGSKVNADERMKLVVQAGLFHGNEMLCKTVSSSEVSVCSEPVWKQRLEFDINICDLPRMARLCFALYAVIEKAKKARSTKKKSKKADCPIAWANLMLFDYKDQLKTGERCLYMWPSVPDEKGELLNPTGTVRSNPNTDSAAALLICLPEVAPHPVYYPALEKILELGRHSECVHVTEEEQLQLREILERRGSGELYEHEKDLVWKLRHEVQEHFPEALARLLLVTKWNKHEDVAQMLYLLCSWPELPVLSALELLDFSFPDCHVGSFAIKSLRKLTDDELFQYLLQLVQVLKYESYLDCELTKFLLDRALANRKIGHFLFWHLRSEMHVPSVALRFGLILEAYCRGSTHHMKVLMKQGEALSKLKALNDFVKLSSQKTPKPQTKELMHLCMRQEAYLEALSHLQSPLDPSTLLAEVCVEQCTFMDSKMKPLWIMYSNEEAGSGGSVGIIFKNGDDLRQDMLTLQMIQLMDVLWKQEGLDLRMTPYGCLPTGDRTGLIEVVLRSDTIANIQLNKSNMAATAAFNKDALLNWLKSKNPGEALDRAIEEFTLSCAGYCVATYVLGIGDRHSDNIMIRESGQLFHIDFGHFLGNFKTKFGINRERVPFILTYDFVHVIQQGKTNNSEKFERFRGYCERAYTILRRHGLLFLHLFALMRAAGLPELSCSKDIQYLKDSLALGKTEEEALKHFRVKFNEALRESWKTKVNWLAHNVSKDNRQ
T3 sequence (P27986 whole entry partner): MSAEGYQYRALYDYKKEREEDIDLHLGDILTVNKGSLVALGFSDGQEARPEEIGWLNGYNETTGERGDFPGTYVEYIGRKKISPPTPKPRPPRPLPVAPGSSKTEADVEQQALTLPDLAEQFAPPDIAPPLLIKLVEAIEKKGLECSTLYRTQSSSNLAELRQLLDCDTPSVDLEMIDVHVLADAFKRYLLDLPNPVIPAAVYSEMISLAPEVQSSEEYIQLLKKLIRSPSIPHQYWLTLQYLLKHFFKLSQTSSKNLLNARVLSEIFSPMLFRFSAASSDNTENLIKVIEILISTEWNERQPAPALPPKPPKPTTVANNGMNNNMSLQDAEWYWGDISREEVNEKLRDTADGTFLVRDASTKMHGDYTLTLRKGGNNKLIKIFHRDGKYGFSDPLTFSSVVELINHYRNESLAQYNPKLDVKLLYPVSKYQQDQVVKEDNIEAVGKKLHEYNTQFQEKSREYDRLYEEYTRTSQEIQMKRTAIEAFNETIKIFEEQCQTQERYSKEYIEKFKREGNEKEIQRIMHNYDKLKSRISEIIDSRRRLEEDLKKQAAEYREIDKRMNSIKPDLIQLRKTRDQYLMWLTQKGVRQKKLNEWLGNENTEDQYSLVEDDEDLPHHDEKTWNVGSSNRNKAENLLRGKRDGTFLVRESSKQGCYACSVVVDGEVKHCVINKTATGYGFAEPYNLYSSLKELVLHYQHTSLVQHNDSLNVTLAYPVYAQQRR
T1 sequence (P42338 whole entry): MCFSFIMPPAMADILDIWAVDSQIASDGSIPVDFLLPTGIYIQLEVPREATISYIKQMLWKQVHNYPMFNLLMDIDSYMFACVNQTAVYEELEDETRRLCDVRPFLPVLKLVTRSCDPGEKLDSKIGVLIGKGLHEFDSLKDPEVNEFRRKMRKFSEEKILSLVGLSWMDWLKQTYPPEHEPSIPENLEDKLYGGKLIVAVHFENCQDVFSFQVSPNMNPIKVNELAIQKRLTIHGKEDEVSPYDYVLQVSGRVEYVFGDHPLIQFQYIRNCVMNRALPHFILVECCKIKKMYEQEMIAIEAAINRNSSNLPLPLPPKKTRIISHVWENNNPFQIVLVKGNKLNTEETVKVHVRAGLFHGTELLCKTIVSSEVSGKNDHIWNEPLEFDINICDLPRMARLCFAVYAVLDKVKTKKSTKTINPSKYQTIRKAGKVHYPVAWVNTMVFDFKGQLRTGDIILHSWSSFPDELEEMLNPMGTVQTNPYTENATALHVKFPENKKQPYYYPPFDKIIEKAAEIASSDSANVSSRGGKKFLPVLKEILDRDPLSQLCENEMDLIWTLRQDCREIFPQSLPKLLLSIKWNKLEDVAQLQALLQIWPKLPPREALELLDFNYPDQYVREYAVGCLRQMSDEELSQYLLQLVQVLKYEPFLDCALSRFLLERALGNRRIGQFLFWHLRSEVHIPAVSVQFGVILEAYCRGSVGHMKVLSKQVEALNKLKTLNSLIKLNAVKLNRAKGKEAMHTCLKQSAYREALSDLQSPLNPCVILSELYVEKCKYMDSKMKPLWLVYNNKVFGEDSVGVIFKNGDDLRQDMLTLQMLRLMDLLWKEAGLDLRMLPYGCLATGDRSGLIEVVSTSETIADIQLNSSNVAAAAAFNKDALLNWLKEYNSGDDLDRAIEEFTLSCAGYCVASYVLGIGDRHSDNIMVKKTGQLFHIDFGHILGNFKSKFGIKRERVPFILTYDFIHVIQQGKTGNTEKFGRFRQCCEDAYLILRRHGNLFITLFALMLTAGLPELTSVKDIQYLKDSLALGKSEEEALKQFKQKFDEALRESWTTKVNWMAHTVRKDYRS
T1 sequence (P27986 whole entry partner): as the sequence (P27986 whole entry partner) above
T2 sequence (P42336 whole entry): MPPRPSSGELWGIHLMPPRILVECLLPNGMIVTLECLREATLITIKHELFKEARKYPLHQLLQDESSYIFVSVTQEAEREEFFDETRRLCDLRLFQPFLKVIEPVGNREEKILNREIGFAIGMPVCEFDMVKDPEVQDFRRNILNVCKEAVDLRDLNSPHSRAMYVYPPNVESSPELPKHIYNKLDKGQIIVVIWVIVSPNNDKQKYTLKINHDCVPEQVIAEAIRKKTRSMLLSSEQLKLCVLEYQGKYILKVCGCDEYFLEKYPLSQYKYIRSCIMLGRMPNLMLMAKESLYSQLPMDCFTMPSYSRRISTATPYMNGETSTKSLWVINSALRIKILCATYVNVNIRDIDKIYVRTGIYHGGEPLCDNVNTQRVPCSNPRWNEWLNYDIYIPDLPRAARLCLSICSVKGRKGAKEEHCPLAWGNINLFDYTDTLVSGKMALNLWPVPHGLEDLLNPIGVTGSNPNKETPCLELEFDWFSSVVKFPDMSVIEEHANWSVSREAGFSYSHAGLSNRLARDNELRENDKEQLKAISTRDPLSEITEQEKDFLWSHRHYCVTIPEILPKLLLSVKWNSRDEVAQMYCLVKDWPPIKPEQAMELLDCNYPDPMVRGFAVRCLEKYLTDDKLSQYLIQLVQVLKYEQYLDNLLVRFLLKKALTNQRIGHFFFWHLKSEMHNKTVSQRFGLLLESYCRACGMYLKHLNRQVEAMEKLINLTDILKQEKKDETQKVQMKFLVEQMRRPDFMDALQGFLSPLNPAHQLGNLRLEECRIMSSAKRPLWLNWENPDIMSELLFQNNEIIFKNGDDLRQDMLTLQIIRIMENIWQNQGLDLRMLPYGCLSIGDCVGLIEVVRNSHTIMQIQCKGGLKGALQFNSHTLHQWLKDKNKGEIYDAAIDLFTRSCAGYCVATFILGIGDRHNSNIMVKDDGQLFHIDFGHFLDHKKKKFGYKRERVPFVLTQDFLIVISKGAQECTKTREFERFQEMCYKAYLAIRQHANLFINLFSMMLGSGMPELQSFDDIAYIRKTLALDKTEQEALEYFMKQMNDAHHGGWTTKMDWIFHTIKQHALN
T2 sequence (P27986 whole entry partner): as the sequence (P27986 whole entry partner) above
T4 sequence (P48736 whole entry): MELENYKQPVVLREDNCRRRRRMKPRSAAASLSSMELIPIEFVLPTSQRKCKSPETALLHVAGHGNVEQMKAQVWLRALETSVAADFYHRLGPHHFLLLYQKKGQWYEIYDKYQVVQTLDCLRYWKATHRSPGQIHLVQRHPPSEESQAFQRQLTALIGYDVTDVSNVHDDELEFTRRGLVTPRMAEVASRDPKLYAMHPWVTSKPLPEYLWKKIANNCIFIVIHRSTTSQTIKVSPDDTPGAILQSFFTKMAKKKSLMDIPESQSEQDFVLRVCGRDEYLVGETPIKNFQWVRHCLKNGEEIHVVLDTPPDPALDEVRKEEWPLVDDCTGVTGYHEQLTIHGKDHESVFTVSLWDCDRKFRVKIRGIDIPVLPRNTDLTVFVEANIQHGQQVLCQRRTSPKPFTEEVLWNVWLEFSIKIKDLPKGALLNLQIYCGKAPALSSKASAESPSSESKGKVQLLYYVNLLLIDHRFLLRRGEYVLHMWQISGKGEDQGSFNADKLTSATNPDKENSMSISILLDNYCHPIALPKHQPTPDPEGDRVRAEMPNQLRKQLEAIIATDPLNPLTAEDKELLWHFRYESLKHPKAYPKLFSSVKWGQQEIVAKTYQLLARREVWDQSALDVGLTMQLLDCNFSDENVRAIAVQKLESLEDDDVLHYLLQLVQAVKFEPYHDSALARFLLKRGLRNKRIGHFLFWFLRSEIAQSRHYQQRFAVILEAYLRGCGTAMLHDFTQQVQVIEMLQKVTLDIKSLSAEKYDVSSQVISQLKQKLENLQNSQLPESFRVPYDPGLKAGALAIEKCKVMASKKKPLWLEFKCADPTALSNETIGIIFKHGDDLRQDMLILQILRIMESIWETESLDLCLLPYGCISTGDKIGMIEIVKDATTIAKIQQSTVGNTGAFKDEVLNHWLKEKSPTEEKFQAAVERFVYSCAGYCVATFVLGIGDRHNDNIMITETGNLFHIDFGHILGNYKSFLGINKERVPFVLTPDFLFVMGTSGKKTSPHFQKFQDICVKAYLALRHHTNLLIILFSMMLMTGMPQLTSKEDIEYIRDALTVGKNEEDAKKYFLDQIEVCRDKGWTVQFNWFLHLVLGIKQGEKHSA
Description for Balb/c splenic B cells: The assay is performed in a 96 well microtiter plate using Alamar Blue reduction. Balb/c splenic B cells are purified over a Ficoll-Paque™ PLUS gradient followed by magnetic cell separation using a MACS B cell Isolation Kit (Miletenyi). Cells are plated in 90 ul at 50,000 cells/well in B Cell Media (RPMI+10% FBS+Penn/Strep+50 uM bME+5 mM HEPES). A compound disclosed herein is diluted in B Cell Media and added in a 10 ul volume. Plates are incubated for 30 min at 37 C and 5% CO2 (0.2% DMSO final concentration). A 50 ul B cell stimulation cocktail is then added containing either 10 ug/ml LPS or 5 ug/ml F(ab′)2 Donkey anti-mouse IgM plus 2 ng/ml recombinant mouse IL4 in B Cell Media. […] A volume of 15 uL of Alamar Blue reagent is added to each well and plates are incubated for 5 hours at 37 C and 5% CO2. Alamar Blue fluoresce is read at 560Ex/590Em, and IC50 or EC50 values are calculated using GraphPad Prism 5.
Description for PI3K α: (§1) IC50 values are measured using either a standard TLC assay for lipid kinase activity (described below) or a high-throughput membrane capture assay. Kinase reactions are performed by preparing a reaction mixture containing kinase, inhibitor (2% DMSO final concentration), buffer (25 mM HEPES, pH 7.4, 10 mM MgCl2), and freshly sonicated phosphatidylinositol (100 μg/ml). Reactions are initiated by the addition of ATP containing 10 μCi of γ-32P-ATP to a final concentration 10 or 100 μM and allowed to proceed for 5 minutes at room temperature. For TLC analysis, reactions are then terminated by the addition of 105 μl 1N HCl followed by 160 μl CHCl3:MeOH (1:1). The biphasic mixture is vortexed, briefly centrifuged, and the organic phase is transferred to a new tube using a gel loading pipette tip precoated with CHCl3. This extract is spotted on TLC plates and developed for 3-4 hours in a 65:35 solution of n-propanol:1M acetic acid. The TLC plates are then dried, exposed to a phosphorimager screen (Storm, Amersham), and quantitated.
(§2) Briefly, the assay is a time resolved FRET assay that indirectly measures PIP3 product formed by the activity of a PI3-K. The kinase reaction is performed in a microtiter plate (e.g., a 384 well microtiter plate). The total reaction volume is approximately 20 ul per well. In the first step, each well receives 2 ul of test compound in 20% dimethylsulphoxide resulting in a 2% DMSO final concentration. Next, approximately 14.5 ul of a kinase/PIP2 mixture (diluted in 1× reaction buffer) is added per well for a final concentration of 0.25-0.3 ug/ml kinase and 10 uM PIP2. […] To start the reaction, 3.5 ul of ATP (diluted in 1× reaction buffer) is added per well for a final concentration of 10 uM ATP. The plate is sealed and incubated for 1 hour at room temperature. The reaction is stopped by adding 5 ul of Stop Solution per well and then 5 μl of Detection Mix is added per well. The plate is sealed, incubated for 1 hour at room temperature, and then read on an appropriate plate reader. Data is analyzed and IC50s are generated using GraphPad Prism 5.
Description for PI3K β: as §1, §2
Description for PI3K γ: as §1, §2
Description for PI3K δ: as §1, §2

As to `Cc1cccnc1-n1c(Cn2nc(Cl)c3c(N)ncnc32)nc2scc(C)c2c1=O` [Compound 270], the IC50 was above 10 µM on PI3K β, above 10 µM at PI3K α, below 1 µM against PI3K δ and below 10 µM against PI3K γ.

For `Cc1ccccc1-n1c(Cn2nc(Br)c3c(N)ncnc32)nc2snc(C)c2c1=O` [Compound 239], the IC50 is above 10 µM at PI3K β, above 10 µM against PI3K α, below 1 µM at PI3K δ and above 10 µM at PI3K γ.

With `Cc1cc2c(=O)n(-c3ccccc3C)c(Cn3nc(-c4cccc(O)c4)c4c(N)ncnc43)nc2s1` [Compound 294], the IC50 was above 10 µM at PI3K β, above 10 µM at PI3K α, below 10 µM against PI3K δ and above 10 µM against PI3K γ.

For `Cc1cc2c(=O)n(-c3ccccc3C)c(Cn3nc(Br)c4c(N)ncnc43)nc2s1` [Compound 285], the IC50 against PI3K β was above 10 µM; on PI3K α, above 10 µM; against PI3K δ, below 10 µM; against PI3K γ, above 10 µM.

As for `Cc1ccccc1-n1c(Cn2nc(-c3ccc(O)c(Cl)c3)c3c(N)ncnc32)nc2scc(C)c2c1=O` [Compound 269], the IC50 on PI3K β is below 10 µM; at PI3K α it was above 10 µM; against PI3K δ, below 0.1 µM; against PI3K γ, below 0.1 µM.

In the case of `Cc1cccnc1-n1c(Cn2nc(I)c3c(N)ncnc32)cc2cccc(C)c2c1=O` [Compound 92], the IC50 against PI3K δ and against PI3K γ was below 10 µM throughout.

Turning to `Cc1ccccc1-n1c(Cn2nc(-c3cccc(O)c3)c3c(N)ncnc32)nc2sc(C)c(C)c2c1=O` [Compound 299], the concentration for half-maximal inhibition (IC50) against PI3K β is above 10 µM; against PI3K α, above 10 µM; at PI3K δ it was below 1 µM; on PI3K γ, above 10 µM.

Regarding `Cc1ccccc1-n1c(Cn2nc(-c3cccc(O)c3)c3c(N)ncnc32)nc2snc(C)c2c1=O` [Compound 241], the IC50 at PI3K β is above 10 µM; on PI3K α, above 10 µM; on PI3K δ, below 1 µM; at PI3K γ it was below 10 µM.

`CCc1ccccc1-n1c(Cn2nc(C#C[C@@H](C)O)c3c(N)ncnc32)cc2cccc(C)c2c1=O` [Compound 99]: the EC50 in the assay with Balb/c splenic B cells (setting [1]) was below 100 nM.

Take `CCn1c(Cn2nc(-c3ccc4nc(NC(C)=O)sc4c3)c3c(N)ncnc32)cc2cccc(C)c2c1=O` [Compound 176]: the EC50 with Balb/c splenic B cells (setting [1]) is below 100 nM.

Take `Cc1ccccc1-n1c(Cn2nc(-c3cc(O)cc(F)c3)c3c(N)ncnc32)cc2cccc(F)c2c1=O` [Compound 55]: the EC50 in the assay on Balb/c splenic B cells (setting [1]) was below 100 nM.

For `Cc1ccccc1-n1c(Cn2nc(-c3ccc4ncnc(N)c4c3)c3c(N)ncnc32)cc2cccc(C)c2c1=O` [Compound 152], the EC50 in the assay on Balb/c splenic B cells (setting [1]) was below 1000 nM.

On to `Cc1cccc2cc(Cn3nc(-c4cccc(F)c4)c4c(N)ncnc43)n(-c3ccccc3F)c(=O)c12` [Compound 40], for which the EC50 in the assay on Balb/c splenic B cells (setting [1]) is below 10000 nM.

With `Cc1cccc2cc(Cn3nc(/C=C4/SC(=O)NC4=O)c4c(N)ncnc43)n(-c3ccccc3F)c(=O)c12` [Compound 171], the EC50 in the assay with Balb/c splenic B cells (setting [1]) is below 100 nM.

Consider `Cc1cccc2cc(Cn3nc(-c4cn[nH]c4)c4c(N)ncnc43)n(-c3cccc(F)c3)c(=O)c12` [Compound 166], for which the EC50 with Balb/c splenic B cells (setting [1]) was below 100 nM.

Consider `Cc1ccccc1-n1c(Cn2nc(/C=C/C(N)=O)c3c(N)ncnc32)cc2cccc(C)c2c1=O` [Compound 174], for which, in the assay on Balb/c splenic B cells (setting [1]), the EC50 was below 100 nM.

On to `Cc1cccc2cc(Cn3nc(C#C[C@@H](C)O)c4c(N)ncnc43)n(C(C)C)c(=O)c12` [Compound 61], for which, in the assay with Balb/c splenic B cells (setting [1]), the EC50 is below 1000 nM.

`Cc1cccc2cc(Cn3nc(-c4ccc(O)c(F)c4)c4c(N)ncnc43)n(-c3ccccc3F)c(=O)c12` [Compound 29]: in the assay on Balb/c splenic B cells (setting [1]), the EC50 is below 1000 nM.

For `Cc1cccc2cc(Cn3nc(-c4cc(O)cc(F)c4)c4c(N)ncnc43)n(-c3ccccc3C(C)C)c(=O)c12` [Compound 95], in the assay with Balb/c splenic B cells (setting [1]), the EC50 is below 100 nM.

As for `COc1cc(-c2nn(Cc3cc4cccc(C)c4c(=O)n3-c3ccccc3C)c3ncnc(N)c23)ccc1Cl` [Compound 21], the EC50 in the assay with Balb/c splenic B cells (setting [1]) is below 1000 nM.

Take `Cc1cccc2cc(Cn3nc(I)c4c(N)ncnc43)n(-c3ccccc3C(C)C)c(=O)c12` [Compound 75]: the EC50 with Balb/c splenic B cells (setting [1]) is below 100 nM.

Consider `Cc1cccc2cc(Cn3nc(I)c4c(N)ncnc43)n(C3CCC3)c(=O)c12` [Compound 105], for which, in the assay with Balb/c splenic B cells (setting [1]), the EC50 is below 1000 nM.

In the case of `Cc1ccccc1-n1c(Cn2nc(Br)c3c(N)ncnc32)cc2cccc(C)c2c1=O` [Compound 19], the EC50 in the assay on Balb/c splenic B cells (setting [1]) was below 1000 nM.

Consider `Cc1cccc2cc(Cn3nc(-c4cc(O)cc(F)c4)c4c(N)ncnc43)n(C)c(=O)c12` [Compound 125], for which the EC50 with Balb/c splenic B cells (setting [1]) was below 100 nM.

Regarding `CC(=O)Nc1nc2ccc(-c3nn(Cc4cc5cccc(C)c5c(=O)n4C)c4ncnc(N)c34)cc2s1` [Compound 153], the EC50 in the assay with Balb/c splenic B cells (setting [1]) was below 100 nM.

Take `Cc1ccccc1-n1c(Cn2nc(-c3ccc4nc(N)sc4c3)c3c(N)ncnc32)cc2cccc(C)c2c1=O` [Compound 145]: in the assay on Balb/c splenic B cells (setting [1]), the EC50 was below 1000 nM.

Regarding `Cc1cccc2cc(C(C)Nc3ncnc4[nH]cnc34)n(-c3ccccc3F)c(=O)c12` (centres unmarked) [Compound 167], the EC50 with Balb/c splenic B cells (setting [1]) was below 100 nM.

In the case of `Cc1cccc2cc(Cn3nc(I)c4c(N)ncnc43)n(C3CCCC3)c(=O)c12` [Compound 57], the EC50 in the assay on Balb/c splenic B cells (setting [1]) is below 10000 nM.

Consider `Cc1cccc2cc(Cn3cnc4c(N)ncnc43)n(-c3ccccc3F)c(=O)c12` [Compound 1], for which the EC50 in the assay on Balb/c splenic B cells (setting [1]) was below 10000 nM.

As for `Nc1ncnc2c1c(-c1cc(O)cc(F)c1)nn2Cc1cc2cccc(F)c2c(=O)n1-c1ccccc1F` [Compound 144], the EC50 in the assay on Balb/c splenic B cells (setting [1]) is below 100 nM.

As for `Cc1ccccc1-n1c(Cn2nc(Cl)c3c(N)ncnc32)cc2cccc(C)c2c1=O` [Compound 20], the EC50 with Balb/c splenic B cells (setting [1]) was below 1000 nM.

For the compound `CC(=O)Nc1nc2ccc(-c3nn(Cc4cc5cccc(Cl)c5c(=O)n4C(C)C)c4ncnc(N)c34)cc2s1` [Compound 157], the EC50 in the assay on Balb/c splenic B cells (setting [1]) is below 100 nM.

As for `Cc1cccc2cc(Cn3nc(I)c4c(N)ncnc43)n(-c3ccccc3O)c(=O)c12` [Compound 79], the EC50 with Balb/c splenic B cells (setting [1]) is below 1000 nM.

For the compound `Cc1ccccc1-n1c(Cn2nc(C#C[C@H](C)O)c3c(N)ncnc32)cc2cccc(C)c2c1=O` [Compound 85], the EC50 in the assay on Balb/c splenic B cells (setting [1]) is below 1000 nM.

With `CC(C)n1c(Cn2nc(-c3cc(O)cc(F)c3)c3c(N)ncnc32)cc2cccc(Cl)c2c1=O` [Compound 138], in the assay on Balb/c splenic B cells (setting [1]), the EC50 was below 100 nM.

Turning to `Cc1cccc2cc(Cn3nc(-c4cccc(O)c4)c4c(N)ncnc43)n(C3CCC3)c(=O)c12` [Compound 114], the EC50 in the assay on Balb/c splenic B cells (setting [1]) is below 1000 nM.

Turning to `Cc1ccccc1-n1c(Cn2nc(-c3ccc(Cl)cc3)c3c(N)ncnc32)cc2cccc(C)c2c1=O` [Compound 49], the EC50 with Balb/c splenic B cells (setting [1]) was below 10000 nM.

Regarding `Cc1cccc2cc(Cn3nc(-c4cc(O)cc(F)c4)c4c(N)ncnc43)n(-c3ccccc3F)c(=O)c12` [Compound 3], in the assay on Balb/c splenic B cells (setting [1]), the EC50 was below 100 nM.

Take `COc1ccccc1-n1c(Cn2nc(Br)c3c(N)ncnc32)nc2scc(C)c2c1=O` [Compound 274]: the half-maximal inhibitory concentration (IC50) against PI3K β was above 10 µM; against PI3K α, above 10 µM; against PI3K δ, below 0.1 µM; against PI3K γ, below 1 µM.

As for `Cc1cccc2cc(Cn3nc(I)c4c(N)ncnc43)n(-c3ccccc3OCCN3CCOCC3)c(=O)c12` [Compound 103], in the assay on Balb/c splenic B cells (setting [1]), the EC50 was below 1000 nM.

As to `Cc1cccc2cc(Cn3nc(-c4cccc(O)c4)c4c(N)ncnc43)n(-c3ccccc3O)c(=O)c12` [Compound 81], the EC50 in the assay with Balb/c splenic B cells (setting [1]) is below 100 nM.

With `CC(=O)Nc1nc2ccc(-c3nn(Cc4cc5cccc(C)c5c(=O)n4C(C)C)c4ncnc(N)c34)cc2s1` [Compound 154], the EC50 in the assay with Balb/c splenic B cells (setting [1]) is below 100 nM.

Take `CCn1c(Cn2nc(-c3cccc(O)c3)c3c(N)ncnc32)cc2cccc(C)c2c1=O` [Compound 126]: the EC50 with Balb/c splenic B cells (setting [1]) was below 100 nM.

Regarding `Cc1ccccc1-n1c(Cn2nc(-c3cccc(F)c3)c3c(N)ncnc32)cc2cccc(C)c2c1=O` [Compound 41], the EC50 with Balb/c splenic B cells (setting [1]) is below 1000 nM.

Take `Cc1cccc2cc(Cn3nc(C#CCO)c4c(N)ncnc43)n(-c3ccccc3F)c(=O)c12` [Compound 8]: the EC50 with Balb/c splenic B cells (setting [1]) was below 1000 nM.

On to `Cc1cccc2cc(Cn3nc(-c4cccc(O)c4)c4c(N)ncnc43)n(C3CC3)c(=O)c12` [Compound 102], for which, in the assay on Balb/c splenic B cells (setting [1]), the EC50 is below 100 nM.

Turning to `Cc1cccc2cc(Cn3nc(C#C[C@@H](C)O)c4c(N)ncnc43)n(C3CC3)c(=O)c12` [Compound 100], in the assay with Balb/c splenic B cells (setting [1]), the EC50 is below 1000 nM.

Regarding `Cc1cccc2cc(Cn3nc(-c4cc(O)cc(F)c4)c4c(N)ncnc43)n(-c3ccccc3)c(=O)c12` [Compound 147], the EC50 in the assay with Balb/c splenic B cells (setting [1]) was below 100 nM.

Regarding `Cc1cccc2cc(Cn3nc(I)c4c(N)ncnc43)n(-c3ccccc3F)c(=O)c12` [Compound 2], the EC50 with Balb/c splenic B cells (setting [1]) is below 10000 nM.

With `Cc1cccnc1-n1c(Cn2nc(-c3cccc(O)c3)c3c(N)ncnc32)cc2cccc(C)c2c1=O` [Compound 73], the EC50 with Balb/c splenic B cells (setting [1]) is below 100 nM.

With `Cc1cccc2cc(Cn3nc(C#N)c4c(N)ncnc43)n(-c3ccccc3F)c(=O)c12` [Compound 169], the EC50 in the assay with Balb/c splenic B cells (read-out: B cell proliferation EC50 (nM)) was below 1000 nM.

`Cc1cccc2cc(Cn3nc(-c4ccc(Cl)c(O)c4)c4c(N)ncnc43)n(-c3ccccc3F)c(=O)c12` [Compound 24]: in the assay on Balb/c splenic B cells (setting [1]), the EC50 was below 1000 nM.

For the compound `Cc1ccccc1-n1c(Cn2nc(C#C[C@@H](C)O)c3c(N)ncnc32)cc2cccc(F)c2c1=O` [Compound 43], the EC50 with Balb/c splenic B cells (setting [1]) is below 10000 nM.

For `Cc1cccc2cc(Cn3nc(-c4cccc(O)c4)c4c(N)ncnc43)n(-c3ccccc3)c(=O)c12` [Compound 146], the EC50 in the assay with Balb/c splenic B cells (setting [1]) was below 100 nM.

In the case of `CC(C)n1c(Cn2nc(-c3cc(O)cc(F)c3)c3c(N)ncnc32)cc2ccccc2c1=O` [Compound 136], the EC50 with Balb/c splenic B cells (setting [1]) was below 100 nM.

Consider `Cc1ccccc1-n1c(Cn2nc(C#C[C@@H](C)O)c3c(N)ncnc32)cc2cccc(C)c2c1=O` [Compound 37], for which the EC50 in the assay with Balb/c splenic B cells (setting [1]) is below 100 nM.

With `CC(=O)Nc1nc2ccc(-c3nn(Cc4cc5cccc(C)c5c(=O)n4-c4ccccc4)c4ncnc(N)c34)cc2s1` [Compound 177], the EC50 in the assay on Balb/c splenic B cells (setting [1]) is below 100 nM.

As for `CC(C)n1c(Cn2nc(-c3cccc(O)c3)c3c(N)ncnc32)cc2cccc(Cl)c2c1=O` [Compound 137], in the assay on Balb/c splenic B cells (setting [1]), the EC50 is below 100 nM.

For orientation: IC50 means the concentration needed to halve the response being measured.

The values above are taken from patent publication US9822131B2, “Certain chemical entities, compositions and methods” (Intellikine LLC, priority 2008, dated 2017).
